Data reported in patent US20240336654A1, “ANTIMICROBIAL PEPTIDOMIMETICS” (SPEXIS AG, priority 2021, published 2024).
Where a SMILES comes first, the peptide text is derived from it. Bridges are numbered along the chain shown (N, C = ends). [ ]: non-standard residue; d: D form. The star is where a group is joined. Val(Nα-amidino) = CC(C)[C@H](NC(=N)N)C(=O)*; dDab(iPr) = CC(C)NCC[C@@H](N)C(=O)O; Dab(iPr) = CC(C)NCC[C@H](N)C(=O)O; Hyp = O=C(O)[C@@H]1C[C@@H](O)CN1; Pen = CC(C)(S)[C@H](N)C(=O)O; dDab = NCC[C@@H](N)C(=O)O; Nle = CCCC[C@H](N)C(=O)O; Dab = NCC[C@H](N)C(=O)O

Tests used:
Format in all cases: cell-based
[1] = test system: human red blood cells (hRBC); settings: red cells of human, 1 h, 200 μg/mL
Summary of the method: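 Percent hemolysis derived from OD540 of supernatants relative to full lysis by 2.5% Triton X-100 (PBS baseline). Washed fresh human erythrocytes (20% v/v) were exposed to 200 μg/mL peptide for 1 h at 37 °C with shaking.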

[2] = test system: Escherichia coli MCR-1 Af 45; settings: MCR-1 Af 45
Summary of the method: (§1)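 The MIC is the lowest peptide concentration, in μg/mL, with no visible growth after 18-20 h incubation at 35 °C. Serial two-fold peptide dilutions in water with 0.002% P-80 final were added to bacteria in cation-adjusted MHII broth, about 5×10^5 CFU/mL, following modified CLSI microdilution.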

[3] = test system: Klebsiella pneumoniae SSI3010; settings: SSI3010
Summary of the method: as §1

[4] = test system: Escherichia coli ATCC 25922; settings: ATCC 25922
Summary of the method: as §1

Escherichia coli MCR-1 Af45 MIC [2] | Klebsiella pneumoniae SSI3010 MIC [3] | Escherichia coli ATCC 25922 MIC [4] | SMILES | Hemolysis at 0.2 g/L [1]
0.0625 µg/mL | 0.125 µg/mL | 0.0625 µg/mL | CC[C@H](C)[C@H](NC(=O)[C@@H]1C[C@@H](O)CN1C(=O)[C@@H](NC(=N)N)C(C)C)C(=O)N[C@@H]1C(=O)N[C@@H](Cc2ccc(O)cc2)C(=O)N[C@@H](CO)C(=O)N[C@@H](CC(N)=O)C(=O)N[C@@H](CCCNC(=N)N)C(=O)N[C@@H](CCN)C(=O)N[C@@H]([C@@H](C)O)C(=O)N[C@H](CCNC(C)C)C(=O)N[C@@H](CCCCN)C(=O)N[C@@H](CCN)C(=O)N[C@@H](CCN)C(=O)N[C@H](C(=O)N[C@@H](Cc2ccc(O)cc2)C(=O)O)CSSC1(C)C [Example 71, Gua-Val-Hyp-Ile-Pen-Tyr-Ser-Asn-Arg-Dab-Thr-^DDab(iPr)-Lys-Dab-Dab-Cys-Tyr] ({Val(Nα-amidino)}-[Hyp]I[Pen]YSNR[Dab]T[dDab(iPr)]K[Dab][Dab]CY-OH; disulfide 3-14) | <1%
0.5 µg/mL | 0.5 µg/mL | 0.5 µg/mL | CC[C@H](C)[C@H](NC(=O)[C@@H]1C[C@@H](O)CN1C(=O)[C@@H](NC(=N)N)C(C)C)C(=O)N[C@@H]1C(=O)N[C@@H](Cc2ccc(O)cc2)C(=O)N[C@@H](CCN)C(=O)N[C@@H](CC(N)=O)C(=O)N[C@@H](CCCNC(=N)N)C(=O)N[C@@H](CCN)C(=O)N[C@@H]([C@@H](C)O)C(=O)N[C@H](CCN)C(=O)N[C@@H](CCCCN)C(=O)N[C@@H]([C@@H](C)O)C(=O)N[C@@H](Cc2ccc(O)cc2)C(=O)N[C@H](C(=O)N[C@@H](Cc2ccc(O)cc2)C(=O)O)CSSC1(C)C [Example 72, Gua-Val-Hyp-Ile-Pen-Tyr-Dab-Asn-Arg-Dab-Thr-^DDab-Lys-Thr-Tyr-Cys-Tyr] ({Val(Nα-amidino)}-[Hyp]I[Pen]Y[Dab]NR[Dab]T[dDab]KTYCY-OH; disulfide 3-14) | <1%
0.5 µg/mL | 0.5 µg/mL | 0.5 µg/mL | CC[C@H](C)[C@@H]1NC(=O)[C@H]([C@@H](C)O)NC(=O)[C@H](CCCCN)NC(=O)[C@@H](CCN)NC(=O)[C@H]([C@@H](C)O)NC(=O)[C@H](CCN)NC(=O)[C@H](CCCNC(=N)N)NC(=O)[C@H](CC(N)=O)NC(=O)[C@H](CCN)NC(=O)[C@H](Cc2ccc(O)cc2)NC(=O)[C@@H](NC(=O)[C@@H](NC(=O)[C@@H]2C[C@@H](O)CN2C(=O)[C@@H](NC(=N)N)C(C)C)[C@@H](C)CC)C(C)(C)SSC[C@@H](C(=O)N[C@@H](Cc2ccc(O)cc2)C(=O)O)NC1=O [Example 73, Gua-Val-Hyp-Ile-Pen-Tyr-Dab-Asn-Arg-Dab-Thr-^DDab-Lys-Thr-Ile-Cys-Tyr] ({Val(Nα-amidino)}-[Hyp]I[Pen]Y[Dab]NR[Dab]T[dDab]KTICY-OH; disulfide 3-14) | <1%

Further lines, the molecule ahead of its results:

SMILES | Escherichia coli MCR-1 Af45 MIC [2] | Klebsiella pneumoniae SSI3010 MIC [3] | Escherichia coli ATCC 25922 MIC [4] | Hemolysis at 0.2 g/L [1]
CC[C@H](C)[C@H](NC(=O)[C@@H]1C[C@@H](O)CN1C(=O)[C@@H](N)C(C)C)C(=O)N[C@@H]1C(=O)N[C@@H](Cc2ccc(O)cc2)C(=O)N[C@@H](CO)C(=O)N[C@@H](CC(N)=O)C(=O)N[C@@H](CCCNC(=N)N)C(=O)N[C@@H](CCN)C(=O)N[C@@H]([C@@H](C)O)C(=O)N[C@H](CCN)C(=O)N[C@@H](CCCCN)C(=O)N[C@@H](CCN)C(=O)N[C@@H](CCN)C(=O)N[C@H](C(=O)N[C@@H](Cc2c[nH]c3ccccc23)C(=O)O)CSSC1(C)C [Example 66, Val-Hyp-Ile-Pen-Tyr-Ser-Asn-Arg-Dab-Thr-^DDab-Lys-Dab-Dab-Cys-Trp] (H-V[Hyp]I[Pen]YSNR[Dab]T[dDab]K[Dab][Dab]CW-OH; disulfide 4-15) | 0.0625 µg/mL | 0.125 µg/mL | 0.0625 µg/mL | <1%
CCCC[C@H](NC(=O)[C@@H]1CSSC(C)(C)[C@H](NC(=O)[C@@H](NC(=O)[C@@H]2C[C@@H](O)CN2C(=O)[C@@H](N)C(C)C)[C@@H](C)CC)C(=O)N[C@@H](Cc2ccc(O)cc2)C(=O)N[C@@H](CO)C(=O)N[C@@H](CC(N)=O)C(=O)N[C@@H](CCCNC(=N)N)C(=O)N[C@@H](CCN)C(=O)N[C@@H]([C@@H](C)O)C(=O)N[C@H](CCN)C(=O)N[C@@H](CCCCN)C(=O)N[C@@H](CCN)C(=O)N[C@@H](CCN)C(=O)N1)C(=O)O [Example 67, Val-Hyp-Ile-Pen-Tyr-Ser-Asn-Arg-Dab-Thr-^DDab-Lys-Dab-Dab-Cys-Nle] (H-V[Hyp]I[Pen]YSNR[Dab]T[dDab]K[Dab][Dab]C[Nle]-OH; disulfide 4-15) | 0.0625 µg/mL | 0.125 µg/mL | 0.0625 µg/mL | <1%
CC[C@H](C)[C@H](NC(=O)[C@@H]1C[C@@H](O)CN1C(=O)[C@@H](NC(=N)N)C(C)C)C(=O)N[C@@H]1C(=O)N[C@@H](Cc2ccc(O)cc2)C(=O)N[C@@H]([C@@H](C)O)C(=O)N[C@@H](CC(N)=O)C(=O)N[C@@H](CCCNC(=N)N)C(=O)N[C@@H](CCN)C(=O)N[C@@H]([C@@H](C)O)C(=O)N[C@H](CCN)C(=O)N[C@@H](CCCCN)C(=O)N[C@@H](CCN)C(=O)N[C@@H](CCN)C(=O)N[C@H](C(=O)N[C@@H](Cc2ccc(O)cc2)C(=O)O)CSSC1(C)C [Example 68, Gua-Val-Hyp-Ile-Pen-Tyr-Thr-Asn-Arg-Dab-Thr-^DDab-Lys-Dab-Dab-Cys-Tyr] ({Val(Nα-amidino)}-[Hyp]I[Pen]YTNR[Dab]T[dDab]K[Dab][Dab]CY-OH; disulfide 3-14) | 0.03125 µg/mL | 0.125 µg/mL | 0.0625 µg/mL | <1%
CC[C@H](C)[C@H](NC(=O)[C@@H]1C[C@@H](O)CN1C(=O)[C@@H](NC(=N)N)C(C)C)C(=O)N[C@@H]1C(=O)N[C@@H](Cc2ccc(O)cc2)C(=O)N[C@@H](CCN)C(=O)N[C@@H](CC(N)=O)C(=O)N[C@@H](CCCNC(=N)N)C(=O)N[C@@H](CCN)C(=O)N[C@@H]([C@@H](C)O)C(=O)N[C@H](CCN)C(=O)N[C@@H](CCCCN)C(=O)N[C@@H](CO)C(=O)N[C@@H](CCN)C(=O)N[C@H](C(=O)N[C@@H](Cc2ccc(O)cc2)C(=O)O)CSSC1(C)C [Example 69, Gua-Val-Hyp-Ile-Pen-Tyr-Dab-Asn-Arg-Dab-Thr-^DDab-Lys-Ser-Dab-Cys-Tyr] ({Val(Nα-amidino)}-[Hyp]I[Pen]Y[Dab]NR[Dab]T[dDab]KS[Dab]CY-OH; disulfide 3-14) | 0.0625 µg/mL | 0.0625 µg/mL | 0.0625 µg/mL | <1%
CC[C@H](C)[C@H](NC(=O)[C@@H]1C[C@@H](O)CN1C(=O)[C@@H](NC(=N)N)C(C)C)C(=O)N[C@@H]1C(=O)N[C@@H](Cc2ccc(O)cc2)C(=O)N[C@@H](CO)C(=O)N[C@@H](CC(N)=O)C(=O)N[C@@H](CCCNC(=N)N)C(=O)N[C@@H](CCNC(C)C)C(=O)N[C@@H]([C@@H](C)O)C(=O)N[C@H](CCN)C(=O)N[C@@H](CCCCN)C(=O)N[C@@H](CCNC(C)C)C(=O)N[C@@H](CCN)C(=O)N[C@H](C(=O)N[C@@H](Cc2ccc(O)cc2)C(=O)O)CSSC1(C)C [Example 70, Gua-Val-Hyp-Ile-Pen-Tyr-Ser-Asn-Arg-Da b(iPr)-Thr-^DDab-Lys-Dab(iPr)-Dab-Cys-Tyr] ({Val(Nα-amidino)}-[Hyp]I[Pen]YSNR[Dab(iPr)]T[dDab]K[Dab(iPr)][Dab]CY-OH; disulfide 3-14) | 0.0625 µg/mL | 0.25 µg/mL | 0.125 µg/mL | <1%
